Assay results from patent publication US10034839B2, “Compositions and methods for delivery of kinase inhibiting peptides” (PURDUE RESEARCH FOUNDATION, priority 2012, dated 2018).
Each block holds one molecule with its values, some of them ahead of it.

Key:
[1] = KAFAK degradability assay in serum; format: in vitro ADME; conditions: for recovery at 12 hours / Integral of KAFAK Peak between 30-31% Acetonitrile: 12 hours at 37° C., then 24 hours at 4° C. (nanoparticles: purify & release in 2x salt)
Description: Samples tested include: peptide alone, serum alone, peptide in serum, and KAFAK loaded 5% AMPS nanoparticles in serum. Each sample volume also contained 0.5× PBS except when stated. Samples containing peptide initially contained 0.5 mg of peptide alone or 1.12 mg of loaded 5% AMPS particles with an equivalent amount of 0.5 mg peptide. Samples with serum were 0.5× serum and 0.5×PBS. Samples without serum were 0.5×PBS and 0.5× MilliQ water. Peptide alone, serum alone, peptide in serum, loaded nanoparticles alone, and loaded nanoparticles in serum were incubated for 12 hours at 37° C. on a shaker. After the 12 hour incubation, samples not containing nanoparticles were placed in the fridge at 4° C. for 24 hours before evaluation. Samples containing nanoparticles were centrifuged for 2 hours at room temperature at 30,000 rpm in an Optima L-90k Ultracentrifuge (Beckman Coulter, Indianapolis, Ind., USA). The nanoparticle pellet was briefly washed with MilliQ water and then resuspended in solution of 0.5×PBS and 0.5× MilliQ water. Samples were then placed in the fridge for 24 hours. Before the 24 hour nanoparticle sample was placed in the fridge to incubate, but after the pellet was dissolved, an additional amount of 0.257 molar concentration of NaCl was added to induce peptide release. This brought the final NaCl concentration to 0.342 molar or twice normal salt concentration in PBS. Additional NaCl was added to facilitate total release by introducing additional counter ions. Samples were evaluated by reverse phase chromotography on a FPLC (AKTA Explorer, GE Healthcare, Pittsburgh Pa., USA) with a 22/250 C18 prep-scale column (Grace Davidson, Deerfield, Ill., USA) and an acetonitrile gradient with 0.1% trifluoroacetic acid. Peptide was quantified by integrating the area under the peak of the FPLC. Peptide molecular weight was confirmed by time of flight MALDI mass spectrometry with a 4800 Plus MALDI TOF/TOF Analyzer (Applied Biosystems, Foster City, Calif., USA).

THP-1 cells = conditions: THP1; corresponds to 60 μg dose of loaded particles; cited from earlier work
[2] = system: IL-6 production in cartilage plugs; experiment: IL-6 ELISA in bovine knee ex vivo inflammatory model; conditions: IL-1β stimulated aggrecan depleted plugs, treatment every two days
Description: Cartilage plugs were obtained from three month old bovine knee joints obtained from an abattoir within 24 hours of slaughter (Dutch Valley Veal, South Holland, Ill., USA). The plugs were removed from the load bearing region of the femoral condyle using a 3 mm diameter cork borer. They were then washed three times in serum free medium and equilibrated for three days in 5% FBS supplemented media. Osteoarthritis (OA)-like conditions were simulated by removal of native aggrecan using a previously described protocol. Briefly, plugs were treated with 0.5% (w/v) trypsin in HBSS for 3 hours at 37° C. After trypsin treatment plugs were washed three times in HBSS and incubated with 20% FBS to inactivate residual trypsin activity. Inflammation was initiated in the plugs by treating with 20 ng/mL II-1β. Nanoparticle treatments as specified in Table 1, were added after day two of culture. Fresh IL-1β and nanoparticles were added every two days for an eight day culture period. Media aliquots were collected and stored in −80° C. till further analysis.
IL-6 production was determined with a bovine IL-6 ELISA development kit (Thermo Scientific, Rockford, Ill., USA). Capture antibody was coated overnight onto Nunc MaxiSorp 96-well plates. […] The plate was read on absorbance plate reader at 450 nm with a correction at 550 nm. […]

[3] = previously reported; cited from earlier work
[4] = system: citrated bovine whole blood; experiment: Activated partial thromboplastin time (whole blood coagulation time); conditions: for Whole Blood Coagulation Time (s) Average (n = 3): nanoparticles 1.5 mg/ml final concentration in blood, collagen 6 mg/ml, heparin .001 mg/ml; for effect on coagulation: whole blood, nanoparticles 1.5 mg/ml
Description: Activated partial thromboplastin time (aPTT) was measured using a Hemochron® Response whole blood coagulation system. 2 ml citrated bovine whole blood and 200 μL nanoparticles in phosphate buffered saline (PBS) pH 7.4 (1.5 mg/ml final concentration in blood) were added to Hemochron® tubes containing colloidal kaolin activating agent and 0.02% thimerosal preservative agent. PBS was calcium and magnesium free. The tubes were then measured and aPTT was recorded. The aPTT for each sample was measured in triplicate. […] Louis, Mo., USA). Measurements with heparin were stopped after 1000 seconds.
As part of a preliminary assessment of utilizing poly(NIPAm-MBA-AMPS) as a blood contacting drug delivery vehicle, whole blood studies were done to determine the hemocompatibility of this system.

blood = experiment: Hemolysis assay ASTM F756; format: cell-based; conditions: nanoparticles 1.5 mg/ml, 37° C., 3 hours; Triton X-100 .01% by volume
Description: After 1000 seconds, experiments in the presence of heparin were stopped due to lack of clotting. Hemolytic assay ASTM standard protocol F756 was used to check if hemolysis occurred upon the addition of poly(NIPAm-MBA-AMPS) to the blood.
Hemolysis assays were performed following ASTM F756 with a BioSpec-1601 spectrophotometer (Shimadzu, Columbia, Md., USA). Determination of total blood hemoglobin was accomplished by using Drabkin's reagent and measuring the absorbance of free hemoglobin in solution at 540 nm. The total blood hemoglobin concentration was used to adjust the hemoglobin content of the blood sample to 10 mg±1 mg by adding blood and an equivalent amount of IX PBS solution. Percent hemolysis was normalized by dividing total hemolysis determined by a 0.01% v/v of Triton X-100, subtracting the absorbance of blood only, and setting absorbance of PBS to zero. Blood, 1 ml, was incubated with 100 μl of a 1.5 mg/ml solution of the nanoparticles in PBS at 37° C. for three hours under gentle shaking. After three hours samples were centrifuged at 750 g for 15 minutes. Supernatant was removed, added 1:1 to equivalent volume of Drabkins reagent, and incubated for 15 minutes before measurement. Absorbance measurements at 540 nm were then recorded using a spectrophotometer.

recovery at 12 hours ([1]; 0.5× PBS and 0.5× MilliQ water (without serum), without serum): 100% | Integral of KAFAK Peak between 30-31% Acetonitrile ([1]; in serum): 0 mAU * ml | recovery at 12 hours ([1]; in serum): 0% | time within which KAFAK peptide degraded ([1]; serum, 37° C., without a carrier): ≤ 12 h | Integral of KAFAK Peak between 30-31% Acetonitrile ([1]; without serum): 593.3 mAU * ml
Molecule: CC(C)C[C@H](NC(=O)[C@H](C)NC(=O)[C@H](CCCCN)NC(=O)[C@H](CCCNC(=N)N)NC(=O)[C@H](Cc1ccc(O)cc1)NC(=O)[C@H](CC(C)C)NC(=O)[C@H](CCCNC(=N)N)NC(=O)[C@H](C)NC(=O)[C@H](C)NC(=O)[C@H](CC(C)C)NC(=O)[C@H](CCCCN)NC(=O)[C@H](C)NC(=O)[C@H](Cc1ccccc1)NC(=O)[C@H](C)NC(=O)[C@@H](N)CCCCN)C(=O)N[C@@H](C)C(=O)N[C@@H](CCCNC(=N)N)C(=O)N[C@@H](CCC(N)=O)C(=O)N[C@@H](CC(C)C)C(=O)NCC(=O)N[C@H](C(=O)N[C@@H](C)C(=O)N[C@@H](C)C(N)=O)C(C)C [KAFAK]
upper toxicity limit (THP-1 cells): 30 µM | effect on IL-6 production [2]: lack of therapeutic activity | serum half-life [3]: less than 12 hours

Molecule: Collagen
Whole Blood Coagulation Time (s) Average (n = 3) [4]: 26 s | effect on coagulation [4]: induce clotting

Whole Blood Coagulation Time (s) Average (n = 3) [4]: >1000 s | effect on coagulation [4]: inhibit coagulation
Molecule: Heparin

Molecule: Triton X-100
Normalized Whole Blood % Hemolysis Average (n = 3) (blood): 100%
